Patent US20150284305A1, “FLUORINE-CONTAINING COMPOUND AND METHOD FOR PRODUCING SAME” (Asahi Glass Company, Limited, priority 2012, published 2015)

Assay: Solubility test: 20 mg sample in 10 g solvent, evaluated visually
Assay type: physicochemical
Conditions: 20 mg in 10 g solvent (0.2 mass %), room temperature / 25° C., visual
Protocol: For evaluating the applicability thereof to a wet process, the compound to be analyzed was tested in a dissolution test in various solvents. As a comparative case, anthracene was tested for the dissolution test.
Concretely, 20 mg of the sample was weighed, and the solubility thereof (0.2 mass %) in 10 g of a solvent at room temperature was visually evaluated.
In Table 1, A means soluble, and B means insoluble. The standard of “soluble” was set as the case where the compound dissolved in an amount of 0.2% by mass or more at a solvent temperature of 25° C.

Question: What does the source list for c1ccc2cc3ccccc3cc2c1 [Comparative Example 3, Anthracene]?
Answer: Solubility Test Cyclohexane (cyclohexane): B (B means insoluble); Solubility Test Hexane (hexane): B (B means insoluble)
